“Also recorded” adds a separate entry of the source.

Experiment [1] relates to purified β-glucosidase from Candida peltata Y-21603. The experiment is described as follows: Substrate specificity and kinetic analysis (Lineweaver-Burk). Format: biochemical. Conditions: for activity on substrate (relative rate of hydrolysis): disaccharides; for Vmax / Km: pH 5.0 and 50° C.; for Km: read-out: apparent Km; for relative rate of hydrolysis, of that of pNPβG: aryl-glycosides. An excerpt:
Substrate specificity and kinetic analysis. Relative rates of hydrolysis of various substrates by the purified β-glucosidase were studied. The enzyme could hydrolyze pNPβG and cellobiose effectively. Salicin was hydrolyzed at 34% of that of cellobiose. The purified enzyme had very little (<5%) or no activity on lactose, maltose, sucrose and trehalose. It also had no or very little activity on p-nitrophenyl-α-D-glucoside, p-nitrophenyl-β-D-xyloside, p-nitrophenyl-β-D-cellobioside, p-nitrophenyl-α-L-arabinofuranoside, and p-nitrophenyl-β-D-glucuronide (<5%). p-Nitrophenyl-β-D-galactoside was hydrolyzed at 6% of that of pNPβG. The reaction kinetics of the purified enzyme were determined from Lineweaver-Burk plots using pNPβG and cellooligosaccharides (cellobiose to cellohexaose) as substrates under optimal conditions (pH 5.0 and 50° C.).

Another experiment concerns Candida peltata Y-21603. The experiment is described as follows: Growth and β-glucosidase production on various carbon sources. Conditions: 28° C., 4 days. Format: cell-based. The procedure:
Yeast strain, medium and culture conditions. The yeast strain (C. peltata NRRL Y-21603, also available as NRRL Y-6888) used in this study was obtained from the ARS culture collection, NCAUR, Peoria, Ill. The medium ([…] et al., 1982, Biotechnol. […] Solution A was a trace mineral solution having the following ingredients (per L): 1.1 g CaO, 0.4 g ZnO, 5.4 g FeCl3 ·6H2 O, 0.25 g CuSO4.5H2 O, 0.24 g CoCl2.6H2 O, 0.06 g H3 BO3 and 13 ml concentrated HCl. Solution B (per L) was composed of 10.1 g MgO and 45 ml concentrated HCl. Solution C (per L) contained 64 g urea, 12 g KH2 PO4, and 1.8 g Na2 HPO4. Substrates were sterilized separately. […] After 4 days, the cells were removed from the culture broth by centrifugation (18,000×g, 20 min). The resulting supernatant solution was used as the crude enzyme preparation. […] Analytical methods. […] Glucose was a good growth substrate for production of β-glucosidase.

The test system of experiment [2] is purified β-glucosidase from Candida peltata Y-21603. The experiment is described as follows: Inhibition by glucose, cellobiose and other sugars; inhibitors and activators (pNPβG hydrolysis assay). Format: biochemical. The procedure:
FIG. 4. […] Reaction time was 15 min at pH 5.0 and 50° C. Enzyme used, 39 mU/ml. pNPβG used: .smallcircle., 0.4 mM; .circle-solid., 0.8 mM; .tangle-solidup., 1.2 mM; Δ, 1.6 mM; .quadrature., 2.0 mM; .box-solid., 2.4 mM.
After incubation at 50° C. for 30 min, the reaction was stopped by adding ice-cold 0.5M Na2 CO3 (1 ml) and the color developed as a result of p-nitrophenol (pNP) liberation was measured at 405 nm.
Inhibition by glucose cellobiose and other sugars. The study of inhibition by glucose was performed with pNPβG as substrate.
Inhibitors and activators.

Experiment [3] has the same test system. Described as above. Format: biochemical. This is another data set of the same source.

As to `OC[C@H]1O[C@H](O[C@H]2O[C@H](CO)[C@@H](O)[C@H](O)[C@H]2O)[C@H](O)[C@@H](O)[C@@H]1O` [trehalose], the “activity on substrate (relative rate of hydrolysis)” value in experiment [1] (purified enzyme) is below 5%.

Take `OC[C@H]1OC(O)[C@H](O)[C@@H](O)[C@@H]1O` (stereo partly drawn) [Glucose, glucose]: the “Growth (A660)” value was found to be 10.7 in the experiment on Candida peltata Y-21603 (carbon source 1% w/v); 13.7 with Candida peltata Y-21603 (carbon source 2% w/v); 13.3 in the experiment with Candida peltata Y-21603 (carbon source 4% w/v); 9.7 with Candida peltata Y-21603 (carbon source 8% w/v); 7.9 in the experiment on Candida peltata Y-21603 (carbon source 12% w/v); 7.3 in the experiment on Candida peltata Y-21603 (carbon source 20% w/v).

Regarding `OC[C@H]1OC(O)[C@H](O)[C@@H](O)[C@H]1O` (stereo partly drawn) [Galactose], in experiment [2] (sugar at 56 mM), the “inhibition of β-glucosidase activity” value is listed as “did not inhibit”.

Regarding `OC[C@H]1O[C@@H](O[C@H]2[C@H](O)[C@@H](O)[C@H](O[C@H]3[C@H](O)[C@@H](O)C(O)O[C@@H]3CO)O[C@@H]2CO)[C@H](O)[C@@H](O)[C@@H]1O` (stereo partly drawn) [cellotriose], in experiment [1], the Vmax amounted to 32 μmol.min^-1.mg^-1 protein and the Km (as a rule, the concentration of substrate that gives half-maximal velocity) came out at 39 mM.

Consider `O[C@H](CS)[C@H](O)CS` (racemic) [DTT, dithiothreitol], for which the “effect on enzyme activity” value in experiment [2] (10 mM) is on record as “not affected”.

On to `OC[C@H]1O[C@@H](O[C@H]2[C@H](O)[C@@H](O)[C@H](O[C@H]3[C@H](O)[C@@H](O)[C@H](O[C@H]4[C@H](O)[C@@H](O)C(O)O[C@@H]4CO)O[C@@H]3CO)O[C@@H]2CO)[C@H](O)[C@@H](O)[C@@H]1O` (stereo partly drawn) [cellotetraose], for which, in experiment [1], the Vmax came to 16 μmol.min^-1.mg^-1 protein and the Km came to 35 mM.

arabinose: in experiment [2] (sugar at 56 mM), the “inhibition of β-glucosidase activity” value is “did not inhibit”.

Regarding `O=[N+]([O-])c1ccc(O[C@H]2O[C@H](CO)[C@@H](O)[C@H](O)[C@H]2O)cc1` [p-nitrophenyl-α-D-glucoside], the “relative rate of hydrolysis, of that of pNPβG” value (“relative rate … of pNPβG” below) in experiment [1] (purified enzyme) is below 5%.

Turning to `OC[C@H]1O[C@@H](O[C@H]2[C@H](O)[C@@H](O)[C@H](O[C@H]3[C@H](O)[C@@H](O)[C@H](O[C@H]4[C@H](O)[C@@H](O)[C@H](O[C@H]5[C@H](O)[C@@H](O)C(O)O[C@@H]5CO)O[C@@H]4CO)O[C@@H]3CO)O[C@@H]2CO)[C@H](O)[C@@H](O)[C@@H]1O` (stereo partly drawn) [cellopentaose], in experiment [1], the Vmax was determined as 8 μmol.min^-1.mg^-1 protein and the Km came to 21 mM.

With `OC[C@H]1OC(O)[C@@H](O)[C@@H](O)[C@@H]1O` (stereo partly drawn) [mannose], the “inhibition of β-glucosidase activity” value in experiment [2] (sugar at 56 mM) was “did not inhibit”.

For `[Mn+2]` [Mn^2+], the “dependence of enzyme activity on metal ion” value (“dependence of enzyme activity” below) in experiment [2] (5 mM) is recorded as “not dependent”.

For `[Co+2]` [Co^2+], in experiment [2] (0.5 mM), the “dependence of enzyme activity” value is on record as “not dependent”.

For `O=C(CO)[C@@H](O)[C@H](O)[C@H](O)CO` [fructose], the “inhibition of β-glucosidase activity” value in experiment [2] (sugar at 56 mM) was “did not inhibit”.

Take `O=C(O)c1cc[c]([Hg][Cl])cc1` [pCMB, p-chloromercuribenzoic acid]: in experiment [2] (0.2 mM), the “effect on enzyme activity” value is recorded as “not affected; also recorded: unaffected”.

For the molecule `O=[N+]([O-])c1ccc(O[C@@H]2O[C@H](CO)[C@@H](O)[C@H](O)[C@H]2O)cc1` [pNPβG, p-nitrophenyl β-D-glucoside], in experiment [1], the Vmax is on record as 221 μmol.min^-1.mg^-1 protein and the Km came out at 2.3 mM. In experiment [3] (40 mM pNPβG), the substrate inhibition entry is listed as “not observed at all; also recorded: not inhibited at all”.

Take `O=[N+]([O-])c1ccc(O[C@@H]2O[C@H](CO)[C@H](O)[C@H](O)[C@H]2O)cc1` [p-Nitrophenyl-β-D-galactoside]: the “relative rate … of pNPβG” value in experiment [1] (purified enzyme) is recorded as 6%.

For the molecule `OC[C@H]1O[C@@H](O[C@H]2[C@H](O)[C@@H](O)C(O)O[C@@H]2CO)[C@H](O)[C@@H](O)[C@H]1O` (stereo partly drawn) [Lactose, lactose], the “inhibition of β-glucosidase activity” value in experiment [2] (sugar at 29 mM) was “did not inhibit”. Also, the “activity on substrate (relative rate of hydrolysis)” value in experiment [1] (purified enzyme) was below 5%. For the same molecule, in the experiment on Candida peltata Y-21603 (carbon source 1% w/v), the “Growth (A660)” value is reported as 2.5.

Take `O=[N+]([O-])c1ccc(O[C@@H]2O[C@H](CO)[C@@H](O[C@@H]3O[C@H](CO)[C@@H](O)[C@H](O)[C@H]3O)[C@H](O)[C@H]2O)cc1` [p-nitrophenyl-β-D-cellobioside]: the “relative rate … of pNPβG” value in experiment [1] (purified enzyme) is recorded as below 5%.

`O=C(O)[C@H]1O[C@@H](Oc2ccc([N+](=O)[O-])cc2)[C@H](O)[C@@H](O)[C@@H]1O` [p-nitrophenyl-β-D-glucuronide]: in experiment [1] (purified enzyme), the “relative rate … of pNPβG” value is below 5%.

Turning to `OC[C@H]1O[C@@H](O[C@H]2[C@H](O)[C@@H](O)C(O)O[C@@H]2CO)[C@H](O)[C@@H](O)[C@@H]1O` (stereo partly drawn) [Cellobiose, cellobiose], in experiment [1], the Vmax stood at 75 μmol.min^-1.mg^-1 protein and the Km stood at 66 mM. Moreover, the “Growth (A660)” value with Candida peltata Y-21603 (carbon source 1% w/v) amounted to 8.7. For the same molecule, the substrate inhibition entry in experiment [3] (15% cellobiose) was “no inhibition; also recorded: not observed at all; also recorded: not inhibited at all”.

Regarding `[Ca+2]` [Ca^2+], in experiment [2] (5 mM), the “dependence of enzyme activity” value is given as “not dependent”.

With `[Mg+2]` [Mg^2+], the “dependence of enzyme activity” value in experiment [2] (5 mM) is reported as “not dependent”.

Take `O=[N+]([O-])c1ccc(O[C@@H]2OC[C@@H](O)[C@H](O)[C@H]2O)cc1` [p-nitrophenyl-β-D-xyloside]: in experiment [1] (purified enzyme), the “relative rate … of pNPβG” value was below 5%.

As to `OC1OC[C@@H](O)[C@H](O)[C@H]1O` (stereo partly drawn) [Xylose, xylose], the “inhibition of β-glucosidase activity” value in experiment [2] (sugar at 56 mM) is “did not inhibit”. In addition, the “Growth (A660)” value in the experiment with Candida peltata Y-21603 (carbon source 1% w/v) came to 11.3.

For the molecule `OC[C@H]1O[C@@](CO)(O[C@H]2O[C@H](CO)[C@@H](O)[C@H](O)[C@H]2O)[C@@H](O)[C@@H]1O` [Sucrose, sucrose], the “inhibition of β-glucosidase activity” value in experiment [2] (sugar at 29 mM) was “did not inhibit”. For the same molecule, the “activity on substrate (relative rate of hydrolysis)” value in experiment [1] (purified enzyme) is on record as below 5%. Further, the “Growth (A660)” value in the experiment on Candida peltata Y-21603 (carbon source 1% w/v) turned out to be 9.0.

Regarding `O=C[C@H](O)[C@@H](O)[C@@H](O)CO` [L-Arabinose], the “Growth (A660)” value in the experiment on Candida peltata Y-21603 (carbon source 1% w/v) came to 9.4.

On to `OC[C@H]1O[C@H](O[C@H]2[C@H](O)[C@@H](O)[C@H](O)O[C@@H]2CO)[C@H](O)[C@@H](O)[C@@H]1O` [Maltose, maltose], for which, in experiment [1] (purified enzyme), the “activity on substrate (relative rate of hydrolysis)” value is below 5%. Further, the “Growth (A660)” value in the experiment with Candida peltata Y-21603 (carbon source 1% w/v) came to 9.3.

For `CCO` [ethanol], the “increase of pNPβG hydrolysis (initial activity)” value in experiment [2] (0.75% (v/v) ethanol, pH 5.0, 50° C., 30 min reaction) stood at 11%.

For `O=[N+]([O-])c1ccc(O[C@@H]2O[C@@H](CO)[C@H](O)[C@H]2O)cc1` [p-nitrophenyl-α-L-arabinofuranoside], the “relative rate … of pNPβG” value in experiment [1] (purified enzyme) is on record as below 5%.

Consider `OCc1ccccc1O[C@@H]1O[C@H](CO)[C@@H](O)[C@H](O)[C@H]1O` [Salicin], for which, in experiment [1] (purified enzyme), the “relative rate of hydrolysis, of that of cellobiose” value is reported as 34%.

As to `OC[C@H]1O[C@@H](O[C@H]2[C@H](O)[C@@H](O)[C@H](O[C@H]3[C@H](O)[C@@H](O)[C@H](O[C@H]4[C@H](O)[C@@H](O)[C@H](O[C@H]5[C@H](O)[C@@H](O)[C@H](O[C@H]6[C@H](O)[C@@H](O)C(O)O[C@@H]6CO)O[C@@H]5CO)O[C@@H]4CO)O[C@@H]3CO)O[C@@H]2CO)[C@H](O)[C@@H](O)[C@@H]1O` (stereo partly drawn) [cellohexaose], in experiment [1], the Vmax turned out to be 5 μmol.min^-1.mg^-1 protein and the Km came out at 18 mM.

(Values after patent US5747320A (The United States of America, as represented by the …, priority 1996, dated 1998).)
